From paper PMC8069289 (Molecules, 2021)
Entries after “also recorded” stand apart in the source; their conditions may differ. Marks after values point to notes of the source that are not given here.

How the values were obtained:
[1] = tested on: HL-60 cells; assay: Internucleosomal DNA fragmentation; format: cell-based, human; details: HL-60, 5 h, all tested concentrations
Method: DNA fragmentation induction was determined as described by Anter et al. (2014). […] After treatment, genomic DNA was extracted using a commercial kit (Blood Genomic DNA Extraction Mini Spin Kit, Canvax Biotech, Córdoba, Spain). Then, DNA was incubated overnight with RNase at 37 °C and quantified in a spectrophotometer (Nanodrop® ND-1000, NanoDrop Technologies, Inc., Wilmington, DE, USA). Finally, 1200 ng DNA were electrophoresed in a 2% agarose gel for 120 min at 50 V, stained with ethidium bromide and visualized under UV light. The apoptosis process is recognised by the appearance of internucleosomal DNA fragments that are multiple of 200 base pairs.

[2] = tested on: Sat-α repetitive sequences of HL-60 cells; assay: Methylation status by qMSP, Sat-α; format: cell-based, human; details: HL-60, 5 h
Method: (§1) Then, DNA was extracted similarly to previously described DNA fragmentation assay. After that, the DNA was converted with bisulphite (EZ DNA Methylation-Gold™ Kit, Zymo Research, Irvine, CA, USA). Bisulphite-modified DNA was used for fluorescence-based real-time quantitative Methylation-Specific PCR (qMSP) using 5 µM of each forward and reverse primer (Isogen Life Science BV, Utrecht, The Netherlands), 2 µL of iTaq™ Universal SYBR® Green Supermix (Bio-Rad Laboratories, Inc., Hercules, CA, USA); it contains antibody-mediated hot-start iTaq DNA polymerase, dNTPs, MgCl2, SYBR® Green I dye, enhancers, stabilizers and a blend of passive reference dyes including ROX and fluorescein) and 25 ng of bisulphite converted genomic DNA.
(§2) PCR conditions included initial denaturalisation at 95 °C for 3 min and amplification which consisted of 45 cycles at 95 °C for 10 s, 60 °C for 15 s and 72 °C for 15 s, taking picture at the end of each elongation cycle. After that, melting curve was determined increasing 0.5 °C each 0.05 s from 60 °C to 95 °C and taking pictures.
QMSP was carried out in 48 well plates in MiniOpticon Real-Time PCR System (MJ Mini Personal Thermal Cycler, Bio-Rad) and were analysed by Bio-Rad CFX Manager 3.1 Software. The housekeeping Alu-C4 was used as a reference to correct for total DNA input. […] Each sample was analysed in triplicate. […]

[3] = tested on: HL-60 cells; assay: Cytotoxicity assay, Trypan blue exclusion test; format: cell-based, human; details: HL-60, 72 h
Method: Promyelocytic human leukaemia (HL-60) immortal cells originated from a person suffering myeloid leukaemia were grown as suspension cultures in RPMI-1640 medium ([…], Sigma-Aldrich, St. Louis, MO, USA) supplemented with 10% heat-inactivated foetal bovine serum (S01805, Linus, Madrid, Spain), L-glutamine 2 mM (G7513, Sigma-Aldrich, St. Louis, MO, USA) and 1× antibiotic-antimycotic solution from a 100× stock solution containing 10,000 units of penicillin, 10 mg of streptomycin and 25 μg of amphotericin B per mL ([…], Sigma-Aldrich, St. Louis, MO, USA). Cells were incubated at 37 °C in a 80% humidified atmosphere 5% CO2. Cultures were plated at 2.5 × 10^4 cells/mL density in 10 mL culture bottles and passed every 2 days. Trypan blue exclusion test was used to determine the cell viability exerted by the assayed compounds, according to our standard procedures. […] After culture, cells were stained with a 1:1 volume ratio of Trypan blue dye (T8154, Sigma-Aldrich, St. Louis, MO, USA) and counted in a Neubauer chamber at 100× magnification. The survival percentage of each treatment compared with the control was recorded in three independent replicates. Data are expressed as mean ± standard deviation of the mean (SEM).

[4] = tested on: HL-60 cells; assay: Alkaline SCGE (comet assay), Tail Moment; format: cell-based, human; details: HL-60, 5 h
Method: DNA integrity was assayed by SCGE as described by Olive and Banáth with minor modifications. […] After treatment, cells were washed twice and adjusted to 6.25 × 10^5 cells/mL in PBS. Electrophoresis gels were prepared pouring a 1:4 dilution (cells in liquid low-melting-point agarose at 40 °C, […], Sigma) into slides. Gels were covered with a coverslip and allowed to solidify at RT for 30 min. Once the slides solidified, the coverslips were carefully removed and slides were bathed in freshly prepared lysing solution (2.5 M NaCl, 100 mM Na-EDTA, 10 mM Tris, 250 mM NaOH, 10% DMSO and 1% Triton X-100; pH = 13) for 1 h at 4 °C. Thereafter, slides were equilibrated in alkaline electrophoresis buffer (300 mM NaOH and 1 mM Na-EDTA, pH = 13) for 20-30 min at 4 °C. Once equilibrated, the slides were underwent electrophoresis (12 V, 400 mA for 8 min) in the dark and were immediately neutralized in cold neutral solution (0.4 M Tris-HCl buffer, pH 7.5) for 10 min. […] Gels were stained with 7 μL propidium iodide and photographed in a DM2500 microscope (Leica Microsystems GmBH, Wetzlar, Germany) at 400× magnification. […] A one-way ANOVA and post-hoc Tukey's test with SPSS Statistics for Windows, Version 19.0 (2010, IBM Corporation, Armonk, NY, USA) was applied to determine the effect of the tested compounds on HL-60 cell DNA integrity from the analyses of Tail Moment (TM) data.

[5] = tested on: LINE-1 repetitive sequences of HL-60 cells; assay: Methylation status by qMSP, LINE-1; format: cell-based, human; details: HL-60, 5 h
Method: as §1, §2
QMSP was carried out in 48 well plates in MiniOpticon Real-Time PCR System (MJ Mini Personal Thermal Cycler, Bio-Rad) and were analysed by Bio-Rad CFX Manager 3.1 Software. The housekeeping Alu-C4 was used as a reference to correct for total DNA input. Alu-C4 and the target repetitive elements Alu-M1, LINE-1 and Sat-α were obtained from Isogen Life Science (Utrecht, The Netherlands) and their sequences are shown in Table 4. Each sample was analysed in triplicate.
The results of each CT were obtained from each qMSP. Data were normalised with the housekeeping Alu C4 using the Nikolaidis et al. and Liloglou et al. comparative CT method (ΔΔCT). One-way ANOVA and post-hoc Tukey’s test are used to evaluate the differences between the tested compounds, repetitive elements and concentrations.

[6] = tested on: Drosophila melanogaster; assay: Antitoxicity assay, combined treatment with 0.15 M H2O2
Method: Toxicity was assayed according to our standard protocols. CRB and SFRB were tested at five concentrations: 1, 4, 8.12, 32.5 and 130 mg/mL and 0.16, 0.625, 1.25, 5 and 20 mg/mL, respectively. […] Tested groups consisted of larvae fed with Drosophila Instant Medium (Formula 4–24, Carolina Biological Supply, Burlington, NC, USA) supplemented with the assessed compounds concentrations. Emerging adults of all groups were counted and toxicity was determined as the percentage of hatched individuals in each treatment compared with the negative control.

## OC[C@H]1OC(O)[C@H](O)[C@@H](O)[C@@H]1O (stereo partly drawn) [GLU, Glucose]
[1]
  internucleosomal DNA fragmentation (ladder pattern): did not induce DNA fragmentation
[2]; 350 mM GLU
  methylation status of satellite alpha sequences: hypermethylated
[3]; Homo sapiens, mean ± SD in Figure 3, read-out: IC50 (inhibitory concentration 50)
  IC50: 42.7 mM
[4]; three lowest concentrations of the cytotoxicity assay
  TM versus concurrent control (DNA damage): significantly induce TM values higher than the concurrent control
[5]; 11 mM GLU
  methylation status of LINE elements: hypomethylated
[5]; 350 mM GLU
  methylation status of LINE repetitive element: reduced the methylation status
[6]; GLU 2.7 mM + 0.15 M hydrogen peroxide
  Survival (%) Combined Treatment: 60%
[6]; GLU 11 mM + 0.15 M hydrogen peroxide
  Survival (%) Combined Treatment: 84.35 * %
[6]; GLU 21.86 mM + 0.15 M hydrogen peroxide
  Survival (%) Combined Treatment: 88.65 * %
[6]; GLU 87.5 mM + 0.15 M hydrogen peroxide
  Survival (%) Combined Treatment: 79 * %
[6]; GLU 350 mM + 0.15 M hydrogen peroxide
  Survival (%) Combined Treatment: 72 * %

## NCCS(=O)(=O)O [TAU, 2-aminoethanesulfonic acid]
[1]
  internucleosomal DNA fragmentation (ladder pattern): did not induce DNA fragmentation
[2]; both tested concentrations of TAU
  methylation status of satellite alpha sequences: significantly hypermethylated
[3]; 2 mM TAU
  cell proliferation: induced a decrease of cell proliferation
[3]; any assayed concentration
  cytotoxic activity: did not show cytotoxic activity
[3]; mean ± SD in Figure 3
  IC50 (inhibitory concentration 50): not found
[4]; 0.25 and 2 mM TAU
  TM versus concurrent control (DNA damage): significantly induce TM values higher than the concurrent control
[4]; concentration not given
  Tail Moment (TM) of representative photograph: 2.49
[5]; TAU highest concentration (32 mM)
  methylation status of LINE-1: reduced this methylation status; also recorded: induced hypomethylation
[6]; TAU 0.25 mM + 0.15 M hydrogen peroxide
  Survival (%) Combined Treatment: 40.76%
[6]; TAU 1 mM + 0.15 M hydrogen peroxide
  Survival (%) Combined Treatment: 57.69 * %
[6]; TAU 2 mM + 0.15 M hydrogen peroxide
  Survival (%) Combined Treatment: 56.9 * %
[6]; TAU 8 mM + 0.15 M hydrogen peroxide
  Survival (%) Combined Treatment: 40%
[6]; TAU 32 mM + 0.15 M hydrogen peroxide
  Survival (%) Combined Treatment: 42.3%
